Results: patent US6340770B1, “Platinum (IV) complex used as anti-cancer agent and preparing method thereof” (Sook Myung Women's University, priority 1999, dated 2002)

Columns and labels:
L1210 cells [1] = test: MTT assay, anti-cancer activity on L1210 cells in vitro; assay type: cell-based, mice; design: Cell Growth: unit not given here; settings: for anti-cancer activity (IC50) compared with cisplatin, in words: L1210 cell; for IC50: MTT, 48 hours, read-out: IC50 in L1210 Cell; for Cell Growth: L1210, 48 hours
Description: (§1) In order to examine anti-cancer activity of Pt(IV) complexes according to the present invention, MTT, i.e., [3-(4,5-dimethylthiazol-2-yl)-2,5-diphenyltetrazolium bromide] assay was performed on HL60 and L1210 which are leukemic cell of human and mice, respectively.
(§2) MTT assay is a quantitative color analysis based on that mitochondrial dehydrogenase, one of cell enzymes, changes yellow water-soluble MTT into deep-blue water-insoluble formazan, and the amount of the generated formazan is proportioned to active cell numbers.^122-124)
(§3) HL60 and L1210, suspended leukemic cells of humans and mice, respectively are used as cancer cells for determining the anti-cancer activity of the Pt (IV) complex according to the above Examples. They were obtained by cultivating the frozen cells alloted from Korean Cell Line Bank.
(§4) Cells were subject to subculture at the interval of 2-3 days at 37° C. in the presence of 5% CO2 in RPMI 1640 culture medium controlled to contain 1% penicillin-streptomycin (10,000 unit/ml) and 10% FBS, with keeping the cell number between 2×10^5/ml-5×10^5/ml.
(§5) Pt (IV) complexes prepared by the Examples of the present invention were used as pharmaceutical compounds. Among them, a water-soluble compound was used as it was, and a water-insoluble compound was used after dissolving in DMSO or 95% ethanol, adding PBS to be 2 mM concentarion, filtering with 0.2μ syringe filter to be sterile state and performing serial-dilution with a culture medium to control predetermined concentrations. The final concentration of DMSO or 95% ethanol in cell culture medium was controlled to be below 0.1%.
HL60 and L1210 cells were put into 96-well plate in the amount of 10^4/well and then stabilized for a half hour at 37° C. in the presence of 5% CO2.
(§6) After cultivating HL60 cell at 37° C. in the presence of 5% CO2 for 72 hours and L1210 for 48 hours, MTT reagent (2 mg/ml) was added 50 μl/well, and an additional cultivation was performed at 37° C. in the presence of 5% CO2 for 4 hours. Then, after centrifuging the resultant at 2000 rpm for 5 minites, the supernatant was removed by 170 μl/well.
(§7) Then, after adding DMSO 150 μl/well, the resultant was laid at 40° C. for 30 minutes and stirred for 3 minutes. Then, absorption test using ELISA reader was performed at 570 nm.
(§8) For calibration, a blank test was performed on the same 96-well plate under the same condition.
(§9) The above-described experiment was performed on more than 3 wells under the same condition with different concentration, and the same experiment was repeated over 3 times.

male ICR mice = test: Nephrotoxicity test, serologic analysis (BUN, creatinine, uric acid) after i.p. injection; assay type: in vivo; design: unit not given here; settings: serum, dose 8x IC50 (cisplatin 7x IC50), average ± SD of 5-6 ICR mice
Description: In order to serologically analyze nephrotoxicity of various Pt complexes, after injecting each agent intraperitneally, blood was exsanguinated after 6 hours, 1 day, 3 days and 7 days, respectively. Then, serum was seperated f rom the blood to detect the values of BUN (Blood urea nitrogen), creatinine and uric acid.^133)
As an experimental animal, male ICR mice each weighing about 25 g were purchased from Korean Experimental Animal Center. The experimental animals were bred in SPF(Specific Pathogen Free) room in Medical School of HanYang University, and food (purchased from SamYang) and water were supplied unrestrictedly.
The experimental animals were divided into a normal control group, a control group and an experimental group, and the experimental group was again divided into a cisplatin dispensing group, a 7(Ac)Cl treated group, a 7(TF)Cl treated group, a 7(Ac)M treated group, a 7(TF)M treated group and a 7FMN treated group.
Each groups comprised 20-22 mice, and each group was again divided into a 6 hour-treating group, a 1 day-treating group, a 3 day-treating group and a 7 day-treating group, which contains 5-6 mice, respectively.
First, a predetermined amount of agent was dissolved in DMSO or ethanol, and then PBS was added thereto to make the total volume be 6.6 ml. At this time, the content of DMSO or ethanol was controlled to be below 5%.
The agent dissolved in PBS was filtered using 0.2μ syringe filter, sterilized, and injected into intraperitoneally. Then, after 6 hours, 1 day, 3 days and 7 days, exsanguination was performed.
After seperating serum by centrifuging the blood exsanguinated from mice at 4,500 rpm for 15 minutes, the serum was kept at the temperature −20° C. BUN (Blood urea nitrogen), creatinine and uric acid were detected using a biochemical automatic analyzing apparatus (Olympus reply, Japan) and average and standard deviation were calculated from the obtained data.
Control group was dissolved in PBS and injected in dose of 6.6 ml/Kg.

HL60 cells = test: MTT assay, anti-cancer activity on HL60 cells in vitro; assay type: cell-based, human; design: Cell Growth: unit not given here; settings: for anti-cancer activity (IC50) compared with cisplatin, in words: HL60 cell; for IC50: MTT, 72 hours, read-out: IC50 in HL60 Cell; for Cell Growth: HL60, 72 hours
Description: as §1, §2, §3, §4, §5
HL60 and L1210 cells were put into 96-well plate in the amount of 10^4/well and then stabilized for a half hour at 37° C. in the presence of 5% CO2. […]
as §6, §7, §8, §9

[2] = tested on: proximal renal tubule cells; test: Nephrotoxicity test, electron microscopic findings (TEM) of proximal renal tubule; assay type: in vivo, mice
Description: In order to observe the ultra-structural changes of proximal renal tubule cells, a part of renal cortex of kidney was finely cut in the size of 1 mm^3, pre-fixed with 2% glutaraldehyde-2.5% paraformaldehyde solution, which is prepared with Millonig's phosphate buffer (pH 7.2) at 4° C. for 2-4 hours, and post-fixed with 1% osmium tetroxide for 2 hours, which is diluted with the same buffer solution. Then, after dehydrating the specimen according to ethanol-acetone concentration difference and embeding in Epon 812, it was made to be 2-5 μm thickness in thin section using ultramicrotome and temporarily stained with methylene blue to determine a proper site. Then, it was prepared tobe 60-80 nm thickness of the ultra-thin section, subject to double-staining with uranyl acetate and lead citrate, and observed with TEM (transmission electron microscope; Hitachi-600, Japan).

L1210 cells [3] = settings: literature value (J. Med. Chem. 1994, vol.37, No.10, 1471-1485); cited from earlier work
[4] = 1 Day after single i.p. injection
[5] = 7 Day after single i.p. injection
[6] = 6 hour after single i.p. injection
[7] = 3 day after single i.p. injection

Row | IC50 (L1210 cells [1]) | IC50 (HL60 cells) | Structure (SMILES) | anti-cancer activity (IC50) compared with cisplatin, in words (L1210 cells [1]) | BUN after the 1st time injection (male ICR mice; [4]) | Uric acid after the 1st time injection (male ICR mice; [4]) | BUN after the 1st time injection (male ICR mice; [5]) | Uric acid after the 1st time injection (male ICR mice; [5]) | BUN after the 1st time injection (male ICR mice; [6]) | Uric acid after the 1st time injection (male ICR mice; [6]) | BUN after the 1st time injection (male ICR mice; [7]) | Uric acid after the 1st time injection (male ICR mice; [7]) | anti-cancer activity (IC50) compared with cisplatin, in words (HL60 cells) | also measured
1 | – | – | O=C([O][Pt]1([Cl])([Cl])([O]C(=O)C(F)(F)F)[NH]CCCC[NH]1)C(F)(F)F [7(TF)Cl, trans, cis-ditriflioroacetato,dichloro-1,4-butanediamine Pt(IV) complex] | superior to cisplatin(CDDP) | 23.1 ± 3.3 | 1.82 ± 0.5 | 20.7 ± 3.5 | 1.88 ± 0.3 | 28.8 ± 6.4 | 2.2 ± 0.9 | 18.1 ± 2.3 | 2.22 ± 0.7 | superior to that of cisplatin | ultra-structural changes of proximal renal tubule epithelial cells (TEM) ([2]; sacrificed 6 hours after i.p. injection): seriously damaged findings; ultra-structural changes of proximal renal tubule epithelial cells (TEM) ([2]; sacrificed 3 days after i.p. injection): most of cytoplasmic organelles were damaged
2 | – | – | O=C1CC(=O)[O][Pt]2([OH])([OH])([NH]CCCC[NH]2)[O]1 [7(OH)M, trans-dihydroxo,malonato-1,4-butanediamine Pt(IV) complex] | lower anti-cancer activity than that of cisplatin | – | – | – | – | – | – | – | – | lower anti-cancer activity than that of cisplatin | –
3 | – | – | O=C1CC(=O)[O][Pt]2([O]C(=O)C(F)(F)F)([O]C(=O)C(F)(F)F)([NH]CCCC[NH]2)[O]1 [7(TF)M, trans-ditrifluoroacetato,malonato-1,4-butanediamine Pt(IV) complex] | – | 23.1 ± 4.8 | 1.8 ± 0.4 | 22.3 ± 1.7 | 1.96 ± 0.3 | 22.1 ± 3.1 | 2.04 ± 0.3 | 22.9 ± 1.7 | 1.82 ± 0.4 | higher than that of cisplatin | –
4 | 2.01 µM | 1.83 µM | [Cl][Pt]1([Cl])[NH]CCCC[NH]1 [7 Cl, cis-dichloro-1,4-butanediamine Pt(II) complex] | – | – | – | – | – | – | – | – | – | – | –
5 | – | – | [OH][Pt]1([OH])([Cl])([Cl])[NH]CCCC[NH]1 [7(OH)Cl, trans, cis-dihydroxo,dichloro-1,4-butanediamine Pt(IV) complex] | lower anti-cancer activity than that of cisplatin | – | – | – | – | – | – | – | – | lower anti-cancer activity than that of cisplatin | –
6 | 15 µM | 13.8 µM | O=C1CC(=O)[O][Pt]2([NH]CCCC[NH]2)[O]1 [7 Mal, malonato-1,4-butanediamine Pt(II) complex] | – | – | – | – | – | – | – | – | – | – | Cell Growth (L1210 cells [1]; 0.01 μM): 91; Cell Growth (L1210 cells [1]; 0.05 μM): 95; Cell Growth (L1210 cells [1]; 0.1 μM): 93; Cell Growth (L1210 cells [1]; 0.5 μM): 84.8; Cell Growth (L1210 cells [1]; 1 μM): 80.1; Cell Growth (L1210 cells [1]; 5 μM): 68; Cell Growth (L1210 cells [1]; 10 μM): 55; Cell Growth (L1210 cells [1]; 50 μM): 26.1; Cell Growth (L1210 cells [1]; 100 μM): 20.5; Cell Growth (HL60 cells; 0.01 μM): 92; Cell Growth (HL60 cells; 0.05 μM): 89; Cell Growth (HL60 cells; 0.1 μM): 89; Cell Growth (HL60 cells; 0.5 μM): 82.6; Cell Growth (HL60 cells; 1 μM): 78.8; Cell Growth (HL60 cells; 5 μM): 63.2; Cell Growth (HL60 cells; 10 μM): 57; Cell Growth (HL60 cells; 50 μM): 27; Cell Growth (HL60 cells; 100 μM): 20
7 | – | – | CC(=O)[O][Pt]1([Cl])([Cl])([O]C(C)=O)[NH]CCCC[NH]1 [7(Ac)Cl, trans, cis-diacetato,dichloro-1,4-butanediamine Pt(IV) complex] | superior to cisplatin(CDDP) | 19.4 ± 3.3 | 1.92 ± 0.4 | 22.1 ± 3.4 | 1.74 ± 0.5 | 29.2 ± 1.8 | 2.18 ± 1.0 | 19.2 ± 2.8 | 1.88 ± 0.6 | superior to that of cisplatin | nephrotoxicity compared with cisplatin (conclusion from serologic and electron microscopic analysis) ([2]; 7(Ac)Cl 6 mg/kg, 7(TF)Cl 5.3 mg/kg (8 times of IC50), cisplatin 6 mg/kg (7 times of IC50), i.p.): weaker toxicity than cisplatin; ultra-structural changes of proximal renal tubule epithelial cells (TEM) ([2]; one day after i.p. injection): cytoplasmic organelle damages
8 | – | – | CC(=O)[O][Pt]12([O]C(C)=O)([NH]CCCC[NH]1)[O]C(=O)CC(=O)[O]2 [7(Ac)M, trans-diacetato,malonato-1,4-butanediamine Pt (IV) complex] | – | 22.0 ± 4.1 | 2.34 ± 1.0 | 21.5 ± 5.1 | 1.52 ± 0.3 | 24.0 ± 6.2 | 2.66 ± 0.7 | 22.4 ± 3.3 | 2.0 ± 1.5 | higher than that of cisplatin | –
9 | – | – | [NH2][Pt]1([NH2])[O]C(=O)C2(CCC2)C(=O)[O]1 [carboplatin, cis-diamine(1,1-cyclobutanedicarboxylato)platinum(II)] | – | – | – | – | – | – | – | – | – | – | IC50 relative to that of cisplatin (L1210 cells [3]): about 10 times
10 | 19.3 µM | 16.1 µM | [Cl][Pt]1([Cl])[NH]CCC[NH]1 [6 Cl, cis-dichloro-1,3-propanediamine Pt(II) complex] | – | – | – | – | – | – | – | – | – | – | –

Row | Structure (SMILES) | IC50 (L1210 cells [1]) | IC50 (HL60 cells) | anti-cancer activity (IC50) compared with cisplatin, in words (L1210 cells [1]) | BUN after the 1st time injection (male ICR mice; [4]) | Uric acid after the 1st time injection (male ICR mice; [4]) | BUN after the 1st time injection (male ICR mice; [5]) | Uric acid after the 1st time injection (male ICR mice; [5]) | BUN after the 1st time injection (male ICR mice; [6]) | Uric acid after the 1st time injection (male ICR mice; [6]) | BUN after the 1st time injection (male ICR mice; [7]) | Uric acid after the 1st time injection (male ICR mice; [7]) | anti-cancer activity (IC50) compared with cisplatin, in words (HL60 cells) | also measured
11 | NCCN.[Cl][Pt][Cl] [5 Cl, cis-dichloro,ethylenediamine Pt(II) complex] | 11 µM | 11.7 µM | – | – | – | – | – | – | – | – | – | – | –
12 | N.N.[Cl][Pt][Cl] [CDDP, cis-Diaminedichloroplatinum(II)] | – | 2.74 µM | – | – | – | – | – | – | – | – | – | – | –
